Assay results taken from ChEMBL document CHEMBL1201862, “PubChem BioAssay data set” (2004).
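Following 48 hours of exposure in 96-well plates, responses at five concentrations were used to interpolate endpoints linearly. Abbreviation: GI50, concentration required for 50% inhibition of growth.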 Activity calls are given as the source filed them. Rule as the data show it: active = GI50 up to about 1.1 µM and inactive = higher.

What was measured:
Assay in all cases: NCI-60 cell line screen, 48 h
SF-539 = tested on: SF-539
786-0 = tested on: 786-0
LOX IMVI = tested on: LOX IMVI
OVCAR-5 = tested on: OVCAR-5
IGROV-1 = tested on: IGROV-1
HCT-116 = tested on: HCT-116
SF-295 = tested on: SF-295
HOP-62 = tested on: HOP-62
EKVX = tested on: EKVX
CCRF-CEM = tested on: CCRF-CEM
U-251 = tested on: U-251
NCI-H226 = tested on: NCI-H226
UACC-62 = tested on: UACC-62
COLO 205 = tested on: COLO 205
SW-620 = tested on: SW-620
SK-OV-3 = tested on: SK-OV-3
OVCAR-8 = tested on: OVCAR-8

| Compound | GI50 (SF-539) | GI50 (786-0) | GI50 (LOX IMVI) | GI50 (OVCAR-5) | GI50 (IGROV-1) | GI50 (HCT-116) | GI50 (SF-295) | GI50 (HOP-62) | GI50 (EKVX) | GI50 (CCRF-CEM) | GI50 (U-251) | GI50 (NCI-H226) | GI50 (UACC-62) | GI50 (COLO 205) | GI50 (SW-620) | GI50 (SK-OV-3) | GI50 (OVCAR-8) |
| --- | --- | --- | --- | --- | --- | --- | --- | --- | --- | --- | --- | --- | --- | --- | --- | --- | --- |
| N#CC1(Cc2ccccc2Cl)c2ccccc2C=CN1C(=O)c1ccccc1 (stereo unspecified) | > 100 µM (inactive) | > 100 µM (inactive) | > 100 µM (inactive) | > 100 µM (inactive) | > 100 µM (inactive) | > 100 µM (inactive) | 81.8 µM (inactive) | > 100 µM (inactive) | > 100 µM (inactive) | 57.4 µM (inactive) | 48.9 µM (inactive) | > 100 µM (inactive) | > 100 µM (inactive) | > 100 µM (inactive) | > 100 µM (inactive) | > 100 µM (inactive) | > 100 µM (inactive) |
| FC(F)(F)C1(Cl)C(c2ccccc2)=C1c1ccccc1 | 15.6 µM (inactive) | 17 µM (inactive) | 11.5 µM (inactive) | 17.4 µM (inactive) | 15.5 µM (inactive) | 13.9 µM (inactive) | 14.9 µM (inactive) | 18.3 µM (inactive) | 16.1 µM (inactive) | 2.49 µM (inactive) | 14.7 µM (inactive) | 15.5 µM (inactive) | 14 µM (inactive) | 16.6 µM (inactive) | 13.4 µM (inactive) | 18.2 µM (inactive) | 14.9 µM (inactive) |
| O=C(CCc1n[nH]c(=S)o1)Nc1ccc(Cl)cc1Cl | > 100 µM (inactive) | > 100 µM (inactive) | – | > 100 µM (inactive) | > 100 µM (inactive) | 33.9 µM (inactive) | > 100 µM (inactive) | > 100 µM (inactive) | > 100 µM (inactive) | 43.6 µM (inactive) | > 100 µM (inactive) | > 100 µM (inactive) | > 100 µM (inactive) | > 100 µM (inactive) | 15.5 µM (inactive) | > 100 µM (inactive) | > 100 µM (inactive) |
| Cc1ccc(S(=O)(=O)c2ccccn2)cc1 | > 100 µM (inactive) | > 100 µM (inactive) | > 100 µM (inactive) | 46.5 µM (inactive) | > 100 µM (inactive) | > 100 µM (inactive) | > 100 µM (inactive) | > 100 µM (inactive) | > 100 µM (inactive) | > 100 µM (inactive) | > 100 µM (inactive) | > 100 µM (inactive) | > 100 µM (inactive) | > 100 µM (inactive) | > 100 µM (inactive) | > 100 µM (inactive) | > 100 µM (inactive) |
| CN(C(=O)/C=C/c1ccccc1)C1C2CN3CCC(O2)C13 (stereo unspecified) | > 100 µM (inactive) | > 100 µM (inactive) | > 100 µM (inactive) | > 100 µM (inactive) | > 100 µM (inactive) | > 100 µM (inactive) | > 100 µM (inactive) | > 100 µM (inactive) | > 100 µM (inactive) | > 100 µM (inactive) | > 100 µM (inactive) | > 100 µM (inactive) | > 100 µM (inactive) | > 100 µM (inactive) | > 100 µM (inactive) | > 100 µM (inactive) | > 100 µM (inactive) |
| [N-]=[N+]=NC1(c2ccccc2)C(=O)C(Cl)=C(c2ccccc2)N(c2ccccc2)C1=O (stereo unspecified) | > 100 µM (inactive) | > 100 µM (inactive) | > 100 µM (inactive) | > 100 µM (inactive) | > 100 µM (inactive) | > 100 µM (inactive) | > 100 µM (inactive) | > 100 µM (inactive) | > 100 µM (inactive) | 59.7 µM (inactive) | > 100 µM (inactive) | – | > 100 µM (inactive) | > 100 µM (inactive) | > 100 µM (inactive) | 31.3 µM (inactive) | > 100 µM (inactive) |
| COc1cc2c(c(OC)c1OC)-c1ccc(SC)c(=O)cc1[C@@H](NC(=O)c1ccc(OC(C)=O)cc1)CC2 | 0.0169 µM (active) | 0.0409 µM (active) | 0.0137 µM (active) | 24.7 µM (inactive) | 0.0319 µM (active) | 0.0229 µM (active) | 0.0217 µM (active) | 0.0419 µM (active) | 0.0139 µM (active) | 0.0329 µM (active) | 0.0227 µM (active) | 0.0231 µM (active) | 0.0313 µM (active) | 0.0194 µM (active) | 0.029 µM (active) | 0.0241 µM (active) | 0.0313 µM (active) |
| C=CC[P@]1(=O)O[C@H](c2ccccc2)[C@H](C)N1C | > 100 µM (inactive) | > 100 µM (inactive) | > 100 µM (inactive) | > 100 µM (inactive) | > 100 µM (inactive) | – | > 100 µM (inactive) | – | > 100 µM (inactive) | > 100 µM (inactive) | > 100 µM (inactive) | > 100 µM (inactive) | > 100 µM (inactive) | – | > 100 µM (inactive) | > 100 µM (inactive) | > 100 µM (inactive) |
| c1ccc2c(c1)cc(C1NCCc3nc[nH]c31)c1ccccc12 (stereo unspecified) | > 45.2 µM (inactive) | 32.1 µM (inactive) | 19.8 µM (inactive) | > 74.3 µM (inactive) | > 54.6 µM (inactive) | 21.1 µM (inactive) | 56.2 µM (inactive) | 32.4 µM (inactive) | > 100 µM (inactive) | 27.2 µM (inactive) | 39.1 µM (inactive) | 27.7 µM (inactive) | 22.6 µM (inactive) | 13.5 µM (inactive) | 25.5 µM (inactive) | > 100 µM (inactive) | > 68.9 µM (inactive) |
| O=C1NC2(CCCC2)C(=O)C12CCCC2 | > 100 µM (inactive) | > 100 µM (inactive) | > 100 µM (inactive) | > 100 µM (inactive) | > 100 µM (inactive) | > 100 µM (inactive) | > 100 µM (inactive) | > 100 µM (inactive) | > 100 µM (inactive) | > 100 µM (inactive) | > 100 µM (inactive) | – | > 100 µM (inactive) | > 100 µM (inactive) | > 100 µM (inactive) | > 100 µM (inactive) | > 100 µM (inactive) |
| CC(=O)OC1(C#N)CC2OC1C1N=NN(C(=O)OC(C)(C)C)C21 (stereo unspecified) | 9.75 µM (inactive) | > 100 µM (inactive) | 17.2 µM (inactive) | > 100 µM (inactive) | > 31.6 µM (inactive) | 10.9 µM (inactive) | > 100 µM (inactive) | > 100 µM (inactive) | 55.1 µM (inactive) | 15.1 µM (inactive) | > 100 µM (inactive) | 3.76 µM (inactive) | 18.8 µM (inactive) | > 100 µM (inactive) | 14.6 µM (inactive) | > 100 µM (inactive) | 30.3 µM (inactive) |
| CC(C)OP(=O)(OC(C)C)/C(=N/Nc1ccc([N+](=O)[O-])cc1)NNC(=O)c1ccccc1 | > 100 µM (inactive) | > 100 µM (inactive) | 21.3 µM (inactive) | > 100 µM (inactive) | – | 34.2 µM (inactive) | – | > 100 µM (inactive) | > 100 µM (inactive) | 17.7 µM (inactive) | 26.1 µM (inactive) | 19 µM (inactive) | 20.5 µM (inactive) | 36.1 µM (inactive) | 32.8 µM (inactive) | – | 34.7 µM (inactive) |
| N[C@H](C(=O)O)[C@H](Cl)CC(=O)O | > 100 µM (inactive) | > 100 µM (inactive) | > 100 µM (inactive) | > 100 µM (inactive) | > 100 µM (inactive) | > 100 µM (inactive) | > 100 µM (inactive) | > 100 µM (inactive) | > 100 µM (inactive) | > 100 µM (inactive) | > 100 µM (inactive) | > 100 µM (inactive) | > 100 µM (inactive) | > 100 µM (inactive) | > 100 µM (inactive) | > 100 µM (inactive) | > 100 µM (inactive) |
| COc1cc2c(cc1OC)-c1c3cc(O)ccc3nn[n+]1CC2 | > 100 µM (inactive) | > 100 µM (inactive) | > 100 µM (inactive) | – | > 100 µM (inactive) | > 100 µM (inactive) | > 100 µM (inactive) | > 100 µM (inactive) | > 100 µM (inactive) | > 100 µM (inactive) | > 100 µM (inactive) | > 100 µM (inactive) | > 100 µM (inactive) | > 100 µM (inactive) | > 100 µM (inactive) | > 100 µM (inactive) | > 100 µM (inactive) |
| CC(=O)N(C)OC(=O)CC(=O)c1ccccc1 | > 100 µM (inactive) | > 100 µM (inactive) | > 100 µM (inactive) | > 100 µM (inactive) | > 100 µM (inactive) | > 100 µM (inactive) | > 100 µM (inactive) | > 100 µM (inactive) | – | > 100 µM (inactive) | > 100 µM (inactive) | > 100 µM (inactive) | > 100 µM (inactive) | > 100 µM (inactive) | > 100 µM (inactive) | > 100 µM (inactive) | > 100 µM (inactive) |
| O=C(O)C(CS)NCc1c2ccccc2[n+]([O-])c2ccccc12 (stereo unspecified) | – | 37.2 µM (inactive) | 28.8 µM (inactive) | > 100 µM (inactive) | 33.2 µM (inactive) | 5.87 µM (inactive) | 58.1 µM (inactive) | 66.1 µM (inactive) | 54.3 µM (inactive) | 21.5 µM (inactive) | 45.4 µM (inactive) | 39.9 µM (inactive) | 47.4 µM (inactive) | 78.3 µM (inactive) | 27.4 µM (inactive) | > 100 µM (inactive) | 30.4 µM (inactive) |
| CC(C)(C)NNC(=O)CCn1[nH]c(=O)c(Cl)c(Cl)c1=O | > 100 µM (inactive) | > 100 µM (inactive) | > 100 µM (inactive) | > 100 µM (inactive) | > 100 µM (inactive) | – | > 100 µM (inactive) | > 100 µM (inactive) | > 100 µM (inactive) | > 100 µM (inactive) | > 100 µM (inactive) | > 100 µM (inactive) | > 100 µM (inactive) | > 100 µM (inactive) | > 100 µM (inactive) | > 100 µM (inactive) | > 100 µM (inactive) |
